Assay results published in article PMC9276671, “A first-in-human Phase I dose-escalation trial of the novel therapeutic peptide, ALM201, demonstrates a favourable safety profile in unselected patients with ovarian cancer and other advanced solid tumours” (British Journal of Cancer, 2022).
No end group written: not given here.

Test: Plasma pharmacokinetics of ALM201 in Phase I patients (validated LC-MS/MS, Phoenix WinNonlin)
Conditions: for AUC(0-t): AUC0-t; for AUC(0-t) / Cmax: Gmean (CV); for level at 0.25 h: day 1 cycle 1, 0.25 h after dosing; for level at 0.75 h: day 1 cycle 1, 0.75 h after dosing; for Tmax: median
[1] = cycle 1, excluding patient 03.012
[2] = human, plasma, sc, 10 mg, 10 mg SC, day 1 cycle 1, n = 1, plasma LC-MS/MS
[3] = human, plasma, sc, 10 mg, 10 mg SC, day 3 cycle 1, n = 1, plasma LC-MS/MS
[4] = human, plasma, sc, 10 mg, 10 mg SC, day 18 cycle 1, n = 1, plasma LC-MS/MS
[5] = human, plasma, sc, 10 mg, 10 mg SC, day 18 cycle 2, n = 1, plasma LC-MS/MS
[6] = human, plasma, sc, 10 mg, 10 mg SC, day 18 cycle 4, n = 1, plasma LC-MS/MS
[7] = human, plasma, sc, 10 mg, 10 mg SC, day 18 cycle 6, n = 1, plasma LC-MS/MS
[8] = human, plasma, sc, 10 mg, Plasma concentration, geometric mean (CV%), 10 mg SC, n = 1, LC-MS/MS
[9] = human, plasma, sc, 20 mg, 20 mg SC, day 1 cycle 1, n = 1, plasma LC-MS/MS
[10] = human, plasma, sc, 20 mg, 20 mg SC, day 3 cycle 1, n = 1, plasma LC-MS/MS
[11] = human, plasma, sc, 20 mg, 20 mg SC, day 18 cycle 1, n = 1, plasma LC-MS/MS
[12] = human, plasma, sc, 20 mg, 20 mg SC, day 18 cycle 2, n = 1, plasma LC-MS/MS
[13] = human, plasma, sc, 20 mg, Plasma concentration, geometric mean (CV%), 20 mg SC, n = 1, LC-MS/MS

With IRQQPRDPPTETLELEVSPDPAS [ALM201] the “Plasma concentration, geometric mean (CV%)” value (from here on “Plasma concentration … (CV%)”) (10 mg SC, day 1 cycle 1, 4 h after dosing, n = 1, LC-MS/MS) was “NQ (not quantifiable (less than assay limit of quantification of 100 ng/mL))”, the “Plasma concentration … (CV%)” value (10 mg SC, day 1 cycle 1, 5 h after dosing, n = 1, LC-MS/MS) was “NQ (not quantifiable (less than assay limit of quantification of 100 ng/mL))” and the “Plasma concentration … (CV%)” value (10 mg SC, day 1 cycle 1, 6 h after dosing, n = 1, LC-MS/MS) was “NQ (not quantifiable (less than assay limit of quantification of 100 ng/mL))”. The “Plasma concentration … (CV%)” value (10 mg SC, day 1 cycle 1, 22 h after dosing, n = 1, LC-MS/MS) was “NQ (not quantifiable (less than assay limit of quantification of 100 ng/mL))”, the “Plasma concentration … (CV%)” value (10 mg SC, day 3 cycle 1, 5 h after dosing, n = 1, LC-MS/MS) was “NQ (not quantifiable (less than assay limit of quantification of 100 ng/mL))” and the “Plasma concentration … (CV%)” value (10 mg SC, day 18 cycle 1, 5 h after dosing, n = 1, LC-MS/MS) was “NQ (not quantifiable (less than assay limit of quantification of 100 ng/mL))”. For the same sequence, the “Plasma concentration … (CV%)” value (20 mg SC, day 1 cycle 1, 4 h after dosing, n = 1, LC-MS/MS) was “NQ (not quantifiable (less than assay limit of quantification of 100 ng/mL))”, the “Plasma concentration … (CV%)” value (20 mg SC, day 1 cycle 1, 5 h after dosing, n = 1, LC-MS/MS) was “NQ (not quantifiable (less than assay limit of quantification of 100 ng/mL))” and the “Plasma concentration … (CV%)” value (20 mg SC, day 1 cycle 1, 6 h after dosing, n = 1, LC-MS/MS) was “NQ (not quantifiable (less than assay limit of quantification of 100 ng/mL))”. The “Plasma concentration … (CV%)” value (20 mg SC, day 1 cycle 1, 22 h after dosing, n = 1, LC-MS/MS) was “NQ (not quantifiable (less than assay limit of quantification of 100 ng/mL))”, the “Plasma concentration … (CV%)” value (20 mg SC, day 3 cycle 1, 5 h after dosing, n = 1, LC-MS/MS) was “NQ (not quantifiable (less than assay limit of quantification of 100 ng/mL))” and the “Plasma concentration … (CV%)” value (20 mg SC, day 18 cycle 1, 5 h after dosing, n = 1, LC-MS/MS) was “NQ (not quantifiable (less than assay limit of quantification of 100 ng/mL))”. For the same sequence, the “Tmax, median” value (20 mg SC, day 18 cycle 2, n = 1, plasma LC-MS/MS) was 1 h, the “Plasma concentration … (CV%)” value (40 mg SC, day 1 cycle 1, 6 h after dosing, n = 1, LC-MS/MS) was “NQ (not quantifiable (less than assay limit of quantification of 100 ng/mL))” and the “Plasma concentration … (CV%)” value (40 mg SC, day 1 cycle 1, 22 h after dosing, n = 1, LC-MS/MS) was “NQ (not quantifiable (less than assay limit of quantification of 100 ng/mL))”. For the same sequence, the “Cmax, Gmean (CV)” value (40 mg SC, day 18 cycle 2, n = 1, plasma LC-MS/MS) was 583 ng/mL, the “Plasma concentration … (CV%)” value (80 mg SC, day 1 cycle 1, 22 h after dosing, n = 3, LC-MS/MS) was “NQ (not quantifiable (less than assay limit of quantification of 100 ng/mL))” and the “Tmax, median” value (80 mg SC, day 3 cycle 1, n = 3, plasma LC-MS/MS) was 1.5 h. The “Plasma concentration … (CV%)” value (100 mg SC, day 1 cycle 1, 22 h after dosing, n = 4, LC-MS/MS) was “NQ (not quantifiable (less than assay limit of quantification of 100 ng/mL))”, the “Plasma concentration … (CV%)” value (160 mg SC, day 1 cycle 1, 22 h after dosing, n = 3, LC-MS/MS) was “NQ (not quantifiable (less than assay limit of quantification of 100 ng/mL))” and the “Tmax, median” value (160 mg SC, day 3 cycle 1, n = 3, plasma LC-MS/MS) was 1.52 h. The “Tmax, median” value (160 mg SC, day 18 cycle 1, n = 3, plasma LC-MS/MS) was 1.5 h, the “Plasma concentration … (CV%)” value (200 mg SC, day 1 cycle 1, 22 h after dosing, n = 4, LC-MS/MS) was “NQ (not quantifiable (less than assay limit of quantification of 100 ng/mL))” and the “AUC0-t, Gmean (CV)” value (200 mg SC, day 18 cycle 2, n = 2, CV not calculated, plasma LC-MS/MS) was 5680 ng·h/mL. For the same sequence, the “Plasma concentration … (CV%)” value (300 mg SC, day 1 cycle 1, 22 h after dosing, n = 3, LC-MS/MS) was “NQ (not quantifiable (less than assay limit of quantification of 100 ng/mL))”, the “AUC0-t, Gmean (CV)” value (300 mg SC, day 18 cycle 1, n = 3, plasma LC-MS/MS) was 12,100 (6) ng.h/mL and the “Tmax, median” value (300 mg SC, day 18 cycle 2, n = 3, plasma LC-MS/MS) was 2 h. For the same sequence, the “Day 18:day 1 AUC0-t ratio, mean ± SD” value (cycle 1, all patients) was 1.27 ± 1.32, the “Day 18:day 1 Cmax ratio, mean ± SD” value (cycle 1, all patients) was 1.25 ± 0.97 and the “Day 18:day 1 AUC0-t ratio, mean ± SD” value [1] was 0.95 ± 0.26. For the same sequence, the “Day 18:day 1 Cmax ratio, mean ± SD” value [1] was 1.03 ± 0.39, the Half-life (human, plasma, sc) was roughly 1.5 h and the AUC(0-t) [2] was 485 ng·h/mL. The AUC(0-t) [3] was 868 ng·h/mL, the AUC(0-t) [4] was 817 ng·h/mL and the AUC(0-t) [5] was 702 ng·h/mL. For the same sequence, the AUC(0-t) [6] was 476 ng·h/mL, the AUC(0-t) [7] was 1040 ng·h/mL and the Cmax [2] was 200 ng/mL. For the same sequence, the Cmax [3] was 406 ng/mL, the Cmax [4] was 352 ng/mL and the Cmax [5] was 288 ng/mL. The Cmax [6] was 193 ng/mL, the Cmax [7] was 470 ng/mL and the level at 0.25 h [8] was 106 ng/mL. It also gave a level at 0.75 h [8] of 150 ng/mL, a level at 1.5 h (human, plasma, sc, 10 mg, Plasma concentration, geometric mean (CV%), 10 mg SC, day 1 cycle 1, 1.5 h after dosing, n = 1, LC-MS/MS) of 200 ng/mL and a level at 2 h (human, plasma, sc, 10 mg, Plasma concentration, geometric mean (CV%), 10 mg SC, day 1 cycle 1, 2 h after dosing, n = 1, LC-MS/MS) of 199 ng/mL. The level at 3 h (human, plasma, sc, 10 mg, Plasma concentration, geometric mean (CV%), 10 mg SC, day 1 cycle 1, 3 h after dosing, n = 1, LC-MS/MS) was 153 ng/mL, the level at 0.5 h (human, plasma, sc, 10 mg, Plasma concentration, geometric mean (CV%), 10 mg SC, day 3 cycle 1, 0.5 h after dosing, n = 1, LC-MS/MS) was 406 ng/mL and the level at 1 h (human, plasma, sc, 10 mg, Plasma concentration, geometric mean (CV%), 10 mg SC, day 3 cycle 1, 1 h after dosing, n = 1, LC-MS/MS) was 325 ng/mL. It also gave a level at 1.5 h (human, plasma, sc, 10 mg, Plasma concentration, geometric mean (CV%), 10 mg SC, day 3 cycle 1, 1.5 h after dosing, n = 1, LC-MS/MS) of 294 ng/mL, a level at 2 h (human, plasma, sc, 10 mg, Plasma concentration, geometric mean (CV%), 10 mg SC, day 3 cycle 1, 2 h after dosing, n = 1, LC-MS/MS) of 242 ng/mL and a level at 3.5 h (human, plasma, sc, 10 mg, Plasma concentration, geometric mean (CV%), 10 mg SC, day 3 cycle 1, 3.5 h after dosing, n = 1, LC-MS/MS) of 127 ng/mL. It also gave a level at 0.5 h (human, plasma, sc, 10 mg, Plasma concentration, geometric mean (CV%), 10 mg SC, day 18 cycle 1, 0.5 h after dosing, n = 1, LC-MS/MS) of 188 ng/mL, a level at 1 h (human, plasma, sc, 10 mg, Plasma concentration, geometric mean (CV%), 10 mg SC, day 18 cycle 1, 1 h after dosing, n = 1, LC-MS/MS) of 283 ng/mL and a level at 1.5 h (human, plasma, sc, 10 mg, Plasma concentration, geometric mean (CV%), 10 mg SC, day 18 cycle 1, 1.5 h after dosing, n = 1, LC-MS/MS) of 352 ng/mL. For the same sequence, the level at 2 h (human, plasma, sc, 10 mg, Plasma concentration, geometric mean (CV%), 10 mg SC, day 18 cycle 1, 2 h after dosing, n = 1, LC-MS/MS) was 325 ng/mL, the level at 3.5 h (human, plasma, sc, 10 mg, Plasma concentration, geometric mean (CV%), 10 mg SC, day 18 cycle 1, 3.5 h after dosing, n = 1, LC-MS/MS) was 113 ng/mL and the level at 0.5 h (human, plasma, sc, 10 mg, Plasma concentration, geometric mean (CV%), 10 mg SC, day 18 cycle 2, 0.5 h after dosing, n = 1, LC-MS/MS) was 158 ng/mL. It also gave a level at 1 h (human, plasma, sc, 10 mg, Plasma concentration, geometric mean (CV%), 10 mg SC, day 18 cycle 2, 1 h after dosing, n = 1, LC-MS/MS) of 193 ng/mL, a level at 1.5 h (human, plasma, sc, 10 mg, Plasma concentration, geometric mean (CV%), 10 mg SC, day 18 cycle 2, 1.5 h after dosing, n = 1, LC-MS/MS) of 242 ng/mL and a level at 2 h (human, plasma, sc, 10 mg, Plasma concentration, geometric mean (CV%), 10 mg SC, day 18 cycle 2, 2 h after dosing, n = 1, LC-MS/MS) of 288 ng/mL. The level at 3.5 h (human, plasma, sc, 10 mg, Plasma concentration, geometric mean (CV%), 10 mg SC, day 18 cycle 2, 3.5 h after dosing, n = 1, LC-MS/MS) was 161 ng/mL, the level at 1 h (human, plasma, sc, 10 mg, Plasma concentration, geometric mean (CV%), 10 mg SC, day 18 cycle 4, 1 h after dosing, n = 1, LC-MS/MS) was 176 ng/mL and the level at 1.5 h (human, plasma, sc, 10 mg, Plasma concentration, geometric mean (CV%), 10 mg SC, day 18 cycle 4, 1.5 h after dosing, n = 1, LC-MS/MS) was 193 ng/mL. The level at 2 h (human, plasma, sc, 10 mg, Plasma concentration, geometric mean (CV%), 10 mg SC, day 18 cycle 4, 2 h after dosing, n = 1, LC-MS/MS) was 171 ng/mL, the level at 3.5 h (human, plasma, sc, 10 mg, Plasma concentration, geometric mean (CV%), 10 mg SC, day 18 cycle 4, 3.5 h after dosing, n = 1, LC-MS/MS) was 157 ng/mL and the level at 0.5 h (human, plasma, sc, 10 mg, Plasma concentration, geometric mean (CV%), 10 mg SC, day 18 cycle 6, 0.5 h after dosing, n = 1, LC-MS/MS) was 171 ng/mL. The level at 1.5 h (human, plasma, sc, 10 mg, Plasma concentration, geometric mean (CV%), 10 mg SC, day 18 cycle 6, 1.5 h after dosing, n = 1, LC-MS/MS) was 470 ng/mL, the level at 2 h (human, plasma, sc, 10 mg, Plasma concentration, geometric mean (CV%), 10 mg SC, day 18 cycle 6, 2 h after dosing, n = 1, LC-MS/MS) was 403 ng/mL and the level at 3.5 h (human, plasma, sc, 10 mg, Plasma concentration, geometric mean (CV%), 10 mg SC, day 18 cycle 6, 3.5 h after dosing, n = 1, LC-MS/MS) was 179 ng/mL. For the same sequence, the Tmax [2] was 1.45 h, the Tmax [3] was 0.5 h and the Tmax [4] was 1.58 h. For the same sequence, the Tmax [5] was 2 h, the Tmax [6] was 1.53 h and the Tmax [7] was 1.85 h. For the same sequence, the AUC(0-t) [9] was 1040 ng·h/mL, the AUC(0-t) [10] was 1160 ng·h/mL and the AUC(0-t) [11] was 718 ng·h/mL. It also gave an AUC(0-t) [12] of 1020 ng·h/mL, a Cmax [9] of 542 ng/mL and a Cmax [10] of 614 ng/mL. For the same sequence, the Cmax [11] was 319 ng/mL, the Cmax [12] was 394 ng/mL and the level at 0.25 h [13] was 136 ng/mL. The level at 0.75 h [13] was 368 ng/mL.
